Source: patent publication US10570122B2, “Compounds with anti-tumoral activity” (AB Science, priority 2015, dated 2020)

How the values were obtained:
[1] = system: panel of about 34 human tumor cell lines; test: Cell-based proliferation screening on panel of tumor cell lines; settings: solid tumor cell line, cell line unknown, 48 h, read-out: IC50, solid tumor cell line of column 6 (last section of Table 3)
Method: Compounds of formula (I) were tested against a panel of about 34 human tumor cell lines representing 17 cancer type, namely leukemia (represented by 1 cell line), lymphoma (4 cell lines), myeloma (1 cell line), colorectal (2 cell lines), head and neck (3 cell lines), lung (3 cell lines), melanoma (2 cell lines), pancreas (2 cell lines), prostate (2 cell lines), ovary (2 cell lines) breast (2 cell lines), kidney (2 cell lines), stomach (2 cell lines), liver (2 cell lines), glioblastoma (2 cell lines), osteosarcoma (1 cell line), Ewing Sarcoma (1 cell line).
(§1) Cell-Based Proliferation Screening of Compounds
(§2) CellTiter-Blue cell-based survival/proliferation assay (Promega G8080) was performed on tumor cell lines. A total of 1·10^4 cells/well/50 μl were seeded in a 96-wells plate. Treatment was initiated by addition of a 2× drug solution of 1/10 serial dilutions ranging from 0 to 10 μM. Cells were grown for 48 h at 37° C. and then incubated with 10 μl/well of Promega CellTiter-Bleue reagent for 4 h at 37° C. The amount of resorufin dye formed was quantified by its fluorescence emission at 590 nm using a scanning multiwell spectrophotometer (OPTIMA, BMG labtech, France). A blank well without cells was used as a background control for the spectrophotometer.

PLCPRF5 = test: CellTiter-Blue cell-based survival/proliferation assay, PLCPRF5; settings: Homo sapiens, PLC-PRF-5; PLC_PRF5 liver tumor cell line, 48 h
Method: as §1, §2

MESSA = test: CellTiter-Blue cell-based survival/proliferation assay, MESSA; settings: Homo sapiens, MES-SA; MESSA ovary tumor cell line, 48 h
Method: as §1, §2

DU145 = test: CellTiter-Blue cell-based survival/proliferation assay, DU145; settings: Homo sapiens, DU-145; DU145 prostate tumor cell line, 48 h
Method: as §1, §2

A549 = test: CellTiter-Blue cell-based survival/proliferation assay, A549; settings: Homo sapiens; A549 lung tumor cell line, 48 h
Method: as §1, §2

PANC1 = test: CellTiter-Blue cell-based survival/proliferation assay, PANC1; settings: Homo sapiens, PANC-1; PANC_1 pancreas tumor cell line, 48 h
Method: as §1, §2

HCT116 = test: CellTiter-Blue cell-based survival/proliferation assay, HCT116; settings: Homo sapiens, HCT-116; HCT116 colorectal tumor cell line, 48 h
Method: as §1, §2

HEPG2 = test: CellTiter-Blue cell-based survival/proliferation assay, HEPG2; settings: Homo sapiens; HEPG2 liver tumor cell line, 48 h
Method: as §1, §2

TOV112D = test: CellTiter-Blue cell-based survival/proliferation assay, TOV112D; settings: Homo sapiens; TOV112D ovary tumor cell line, 48 h
Method: as §1, §2

DLD1 = test: CellTiter-Blue cell-based survival/proliferation assay, DLD1; settings: Homo sapiens, DLD-1; DLD_1 colorectal tumor cell line, 48 h
Method: as §1, §2

A498 = test: CellTiter-Blue cell-based survival/proliferation assay, A498; settings: Homo sapiens; A498 kidney tumor cell line, 48 h
Method: as §1, §2

HEP2 = test: CellTiter-Blue cell-based survival/proliferation assay, HEP2; settings: Homo sapiens, HEp-2; HEP2 head & neck tumor cell line, 48 h
Method: as §1, §2

CALU6 = test: CellTiter-Blue cell-based survival/proliferation assay, CALU6; settings: Homo sapiens, Calu-6; CALU6 lung tumor cell line, 48 h
Method: as §1, §2

BXPC3 = test: CellTiter-Blue cell-based survival/proliferation assay, BXPC3; settings: Homo sapiens, BXPC-3; BXPC3 pancreas tumor cell line, 48 h
Method: as §1, §2

ACHN = test: CellTiter-Blue cell-based survival/proliferation assay, ACHN; settings: Homo sapiens; ACHN kidney tumor cell line, 48 h
Method: as §1, §2

BT20 = test: CellTiter-Blue cell-based survival/proliferation assay, BT20; settings: Homo sapiens, BT-20; BT20 breast tumor cell line, 48 h
Method: as §1, §2

OPM2 = test: CellTiter-Blue cell-based survival/proliferation assay, OPM2; settings: Homo sapiens, OPM-2, Myeloma cell line OPM2, 48 h, read-out: Anti-tumoral activity (measured IC50) OPM2
Method: as §1, §2

HL60 = test: CellTiter-Blue cell-based survival/proliferation assay, HL60; settings: Homo sapiens, HL-60, Leukemia cell line HL60, 48 h, read-out: Anti-tumoral activity (measured IC50) HL60
Method: as §1, §2

CLS354 = test: CellTiter-Blue cell-based survival/proliferation assay, CLS354; settings: Homo sapiens, CLS-354; CLS354_4 head & neck tumor cell line, 48 h
Method: as §1, §2

SW579 = test: CellTiter-Blue cell-based survival/proliferation assay, SW579; settings: Homo sapiens; SW579 head & neck tumor cell line, 48 h
Method: as §1, §2

MDAMB231 = test: CellTiter-Blue cell-based survival/proliferation assay, MDAMB231; settings: Homo sapiens, MDA-MB-231; MDAMB231 breast tumor cell line, 48 h
Method: as §1, §2

PC3 = test: CellTiter-Blue cell-based survival/proliferation assay, PC3; settings: Homo sapiens, PC-3; PC3 prostate tumor cell line, 48 h
Method: as §1, §2

HGC27 = test: CellTiter-Blue cell-based survival/proliferation assay, HGC27; settings: Homo sapiens, HGC-27; HGC27 stomach tumor cell line, 48 h
Method: as §1, §2

AGS = test: CellTiter-Blue cell-based survival/proliferation assay, AGS; settings: Homo sapiens; AGS stomach tumor cell line, 48 h
Method: as §1, §2

H1299 = test: CellTiter-Blue cell-based survival/proliferation assay, H1299; settings: Homo sapiens, NCI-H1299; H1299 lung tumor cell line, 48 h
Method: as §1, §2

CCOCc1ccc(C)c(Nc2ncc(-c3ccc(N4CCN(CCOC)C4=O)cc3)o2)c1 [Example 054, 1-(4-(2-((5-(ethoxymethyl)-2-methylphenyl)amino)oxazol-5-yl)phenyl)-3-(2-methoxyethyl)imidazolidin-2-one]
IC50 [1]: > 1 µM
IC50 (PLCPRF5): > 1 µM
IC50 (MESSA): > 1 µM
IC50 (DU145): > 1 µM
IC50 (A549): > 1 µM
IC50 (PANC1): > 1 µM
IC50 (HCT116): > 1 µM
IC50 (HEPG2): > 1 µM
IC50 (TOV112D): > 1 µM
IC50 (DLD1): > 1 µM
IC50 (A498): > 1 µM
IC50 (HEP2): > 1 µM
IC50 (CALU6): > 1 µM
IC50 (BXPC3): > 1 µM
IC50 (ACHN): > 1 µM
IC50 (BT20): > 1 µM
IC50 (OPM2): > 1 µM
IC50 (HL60): > 1 µM
IC50 (CLS354): > 1 µM
IC50 (SW579): > 1 µM
IC50 (MDAMB231): > 1 µM
IC50 (PC3): > 1 µM
IC50 (HGC27): > 1 µM
IC50 (AGS): > 1 µM
IC50 (H1299): > 1 µM

CCOCc1ccc(C)c(Nc2ncc(-c3ccc(N4CCNC4=O)nc3)o2)c1 [Example 055, 1-(5-(2-((5-(ethoxymethyl)-2-methylphenyl)amino)oxazol-5-yl)pyridin-2-yl)imidazolidin-2-one]
IC50 [1]: ≤ 0.1 µM
IC50 (PLCPRF5): > 1 µM
IC50 (MESSA): > 1 µM
IC50 (DU145): > 1 µM
IC50 (A549): ≤ 0.1 µM
IC50 (PANC1): > 1 µM
IC50 (HCT116): ≤ 0.1 µM
IC50 (HEPG2): > 1 µM
IC50 (TOV112D): ≤ 0.1 µM
IC50 (DLD1): > 1 µM
IC50 (A498): > 1 µM
IC50 (HEP2): ≤ 0.1 µM
IC50 (CALU6): > 1 µM
IC50 (BXPC3): > 1 µM
IC50 (ACHN): > 1 µM
IC50 (BT20): > 1 µM
IC50 (OPM2): ≤ 0.1 µM
IC50 (HL60): ≤ 0.1 µM
IC50 (CLS354): ≤ 0.1 µM
IC50 (SW579): ≤ 0.1 µM
IC50 (MDAMB231): > 1 µM
IC50 (PC3): ≤ 0.1 µM
IC50 (HGC27): 0.5 to 1 µM
IC50 (AGS): > 1 µM
IC50 (H1299): > 1 µM

CCOCc1cc(Nc2ncc(-c3ccc(N4CCNC4=O)cc3)o2)cc(OCCOC)c1 [Example 056, 1-(4-(2-((3-(ethoxymethyl)-5-(2-methoxyethoxy)phenyl)amino)oxazol-5-yl)phenyl)imidazolidin-2-one]
IC50 [1]: ≤ 0.1 µM
IC50 (PLCPRF5): > 1 µM
IC50 (MESSA): > 1 µM
IC50 (DU145): > 1 µM
IC50 (A549): > 1 µM
IC50 (PANC1): > 1 µM
IC50 (HCT116): > 1 µM
IC50 (HEPG2): > 1 µM
IC50 (TOV112D): ≤ 0.1 µM
IC50 (DLD1): > 1 µM
IC50 (A498): > 1 µM
IC50 (HEP2): ≤ 0.1 µM
IC50 (CALU6): > 1 µM
IC50 (BXPC3): > 1 µM
IC50 (ACHN): 0.1 to 0.5 µM
IC50 (BT20): > 1 µM
IC50 (OPM2): ≤ 0.1 µM
IC50 (HL60): ≤ 0.1 µM
IC50 (CLS354): ≤ 0.1 µM
IC50 (SW579): ≤ 0.1 µM
IC50 (MDAMB231): > 1 µM
IC50 (PC3): ≤ 0.1 µM
IC50 (HGC27): > 1 µM
IC50 (AGS): > 1 µM
IC50 (H1299): > 1 µM

CCOCc1ccc(C)c(Nc2ncc(-c3ccc(-c4ccn[nH]4)cc3)o2)c1 [Example 057, 5-(4-(1H-pyrazol-5-yl)phenyl)-N-(5-(ethoxymethyl)-2-methylphenyl)oxazol-2-amine]
IC50 [1]: 0.5 to 1 µM
IC50 (PLCPRF5): > 1 µM
IC50 (MESSA): > 1 µM
IC50 (DU145): > 1 µM
IC50 (A549): > 1 µM
IC50 (PANC1): > 1 µM
IC50 (HCT116): > 1 µM
IC50 (HEPG2): > 1 µM
IC50 (TOV112D): ≤ 0.1 µM
IC50 (DLD1): > 1 µM
IC50 (A498): > 1 µM
IC50 (HEP2): 0.5 to 1 µM
IC50 (CALU6): > 1 µM
IC50 (BXPC3): > 1 µM
IC50 (ACHN): > 1 µM
IC50 (BT20): > 1 µM
IC50 (OPM2): 0.1 to 0.5 µM
IC50 (HL60): 0.1 to 0.5 µM
IC50 (CLS354): 0.1 to 0.5 µM
IC50 (SW579): > 1 µM
IC50 (MDAMB231): > 1 µM
IC50 (PC3): 0.5 to 1 µM
IC50 (HGC27): > 1 µM
IC50 (AGS): > 1 µM
IC50 (H1299): > 1 µM

CCOCc1ccc(C)c(Nc2ncc(-c3ccc(N4C(=O)NC[C@H]4C)nc3)o2)c1 [Example 058, (R)-1-(5-(2-((5-(ethoxymethyl)-2-methylphenyl)amino)oxazol-5-yl)pyridin-2-yl)-5-methylimidazolidin-2-one]
IC50 [1]: 0.1 to 0.5 µM
IC50 (PLCPRF5): > 1 µM
IC50 (MESSA): > 1 µM
IC50 (DU145): > 1 µM
IC50 (A549): > 1 µM
IC50 (PANC1): > 1 µM
IC50 (HCT116): > 1 µM
IC50 (HEPG2): > 1 µM
IC50 (TOV112D): ≤ 0.1 µM
IC50 (DLD1): > 1 µM
IC50 (A498): > 1 µM
IC50 (HEP2): 0.1 to 0.5 µM
IC50 (CALU6): > 1 µM
IC50 (BXPC3): > 1 µM
IC50 (ACHN): > 1 µM
IC50 (BT20): > 1 µM
IC50 (OPM2): ≤ 0.1 µM
IC50 (HL60): ≤ 0.1 µM
IC50 (CLS354): ≤ 0.1 µM
IC50 (SW579): > 1 µM
IC50 (MDAMB231): > 1 µM
IC50 (PC3): ≤ 0.1 µM
IC50 (HGC27): > 1 µM
IC50 (AGS): > 1 µM
IC50 (H1299): > 1 µM
